In patent publication US4001272A, “Herbicidal 2-fluoro-4-halo-phenyl-4,5,6,7-tetrahydro-2H-isoindole-1,3-diones” (E. I. Du Pont de Nemours and Company, priority 1974, dated 1977):

How the values were obtained:
Assay type in all cases: in vivo
foxtails (Setaria spp.) = experiment: Test B: overall spray in carrot field after weed emergence, percent control of foxtails; conditions: six weeks after treatment, 0.1% Tween 20
Description: (§1) Test B involved a field sown to carrots and in which the following weed species emerged naturally: crabgrass (Digitaria sanquinalis), foxtails (Setaria spp.), barnyardgrass (Echinochloa crusgalli), pigweed (Amaranthus spp.), ragweed (Ambrosia artemisiifolia), velvetleaf (Abutilon theophrasti), smartweed (Polygonum spp.) and lambsquarters (Chenopodium album). Sixteen days after sowing, when all species of weeds had emerged, the plants were sprayed overall with a 50% wettable powder formulation of 2-(4-chloro-2-fluorophenyl)4,5,6,7-tetrahydro-2H-isoindole-1,3dione (Treatment I) in the form of an aqueous suspension, at rates of 0.5, 1.0, 2.0 and 4.0 kg/ha, and with 2-(4-chlorophenyl)-4,5,6,7-tetrahydro-2H-isoindole-1,3-dione (Treatment II) in the same form and at the same rates. The spray volume was 425 l/ha. The surfactant Tween 20* was added to all treatments in a concentration of 0.1% by weight. Six weeks after treatment, visual observations were made of percent weed control obtained and, for carrots, crop response.
(§2) *Tween 20 -- A trademark of ICI of America which is the reaction product of sorbitan monolaurate with an average of 20 moles of ethylene oxide.

[1] = system: barnyardgrass (Echinochloa crusgalli); experiment: Test B: overall spray in carrot field after weed emergence, percent control of barnyardgrass; conditions: six weeks after treatment, 0.1% Tween 20
Description: as §1, §2

[2] = system: ragweed (Ambrosia artemisiifolia); experiment: Test B: overall spray in carrot field after weed emergence, percent control of ragweed; conditions: six weeks after treatment, 0.1% Tween 20
Description: as §1, §2

[3] = system: velvetleaf (Abutilon theophrasti); experiment: Test B: overall spray in carrot field after weed emergence, percent control of velvetleaf; conditions: six weeks after treatment, 0.1% Tween 20
Description: as §1, §2

[4] = system: smartweed (Polygonum spp.); experiment: Test B: overall spray in carrot field after weed emergence, percent control of smartweed; conditions: six weeks after treatment, 0.1% Tween 20
Description: as §1, §2

[5] = system: lambsquarters (Chenopodium album); experiment: Test B: overall spray in carrot field after weed emergence, percent control of lambsquarters; conditions: six weeks after treatment, 0.1% Tween 20
Description: as §1, §2

[6] = system: barnyardgrass (Echinochloa crusgalli); experiment: Test C: preemergence weed control in rice, barnyardgrass; conditions: 29 days after treatment
Description: (§3) In test A, soybeans, peanuts, lima beans, green beans and squash were planted in a field infested with the following weed seeds: crabgrass (Digitaria sanquinalis), foxtails (Setaria spp.), barnyardgrass (Echinochloa crusgalli), pigweed (Amaranthus spp.), ragweed (Ambrosia artemisiifolia), velvetleaf (Abutilon theophrasti), purslane (Portulaca oleracea) and flower-of-an-hour (Hibiscus trionum). A 50% wettable powder formulation of 2-(4-chloro-2-fluorophenyl)-4,5,6,7-tetrahydro-2H-isoindole-1,3-dione was applied in the form of an aqueous suspension at rates of 0.125, 0.25, 0.5 and 1.0 kg/ha, each treatment replicated twice. The plots were rated for percent weed control and crop response seven weeks after treatment. Crop response was expressed on a scale of 0 = no injury to 10 = complete kill.
(§4) Test C concerned preemergence weed control in rice. The field selected contained seeds of the following weed species: crabgrass (Digitaria sanquinalis), foxtail (Setaria spp.), barnyardgrass (Echinochloa crusgalli), pigweed (Amaranthus spp.), ragweed (Ambrosia artemisiifolia), velvetleaf (Abutilon theophrasti), purslane (Portulaca oleracea) and flower-of-an-hour (Hibiscus trionum). Two varieties of rice, CSM-3 and Nato, were planted at depths of both 1 and 2 cm. In addition, rice seedlings of both varieties were transplanted into the field to be treated. Immediately thereafter, the plot was treated with an aqueous suspension of 2-(4-chloro-2-fluorophenyl)-4,5,6,7-tetrahydro-2H-isoindole-1,3-dione (Treatment I) at rates of 0.125 and 0.25 kg/ha, and an aqueous suspension of 2-(4-chlorophenyl)-4,5,6,7-tetrahydro-2H-isoindole-1,3dione (Treatment II) at rates of 0.25, 0.50, 1.00 and 2.00 kg/ha. The test chemicals had been formulated as 50% wettable powders. Overall spray volume was 540 l/ha. Ratings of percent weed control obtained and crop response were made 29 days after treatment, as described for test A. The ratings are summarized in the following Table III.

[7] = system: pigweed (Amaranthus spp.); experiment: Test C: preemergence weed control in rice, pigweed; conditions: 29 days after treatment
Description: as §3, §4

[8] = system: ragweed (Ambrosia artemisiifolia); experiment: Test C: preemergence weed control in rice, ragweed; conditions: 29 days after treatment
Description: as §3, §4

[9] = system: velvetleaf (Abutilon theophrasti); experiment: Test C: preemergence weed control in rice, velvetleaf; conditions: 29 days after treatment
Description: as §3, §4

[10] = system: purslane (Portulaca oleracea); experiment: Test C: preemergence weed control in rice, purslane; conditions: 29 days after treatment
Description: as §3, §4

[11] = system: flower-of-an-hour (Hibiscus trionum); experiment: Test C: preemergence weed control in rice, flower-of-an-hour; conditions: 29 days after treatment
Description: as §3, §4

rice, variety Nato = experiment: Test C: crop response of rice Nato; conditions: 29 days, 0 = no injury to 10 = complete kill; for Crop Response, Rice Nato, 1 cm: planting depth 1 cm; for Crop Response, Rice Nato, 2 cm: planting depth 2 cm; for Crop Response, Rice Nato, T: transplanted
Description: as §3, with “A 50% wettable powder formulation of 2-(4-chloro-2-fluorophenyl)-4,5,6,7-tetrahydro-2H-isoindole-1,3-dione was applied in the form of an aqueous suspension at rates of 0.125, 0.25, 0.5 and 1.0 kg/ha, each treatment replicated twice.” left out
Test C concerned preemergence weed control in rice. The field selected contained seeds of the following weed species: crabgrass (Digitaria sanquinalis), foxtail (Setaria spp.), barnyardgrass (Echinochloa crusgalli), pigweed (Amaranthus spp.), ragweed (Ambrosia artemisiifolia), velvetleaf (Abutilon theophrasti), purslane (Portulaca oleracea) and flower-of-an-hour (Hibiscus trionum). Two varieties of rice, CSM-3 and Nato, were planted at depths of both 1 and 2 cm. In addition, rice seedlings of both varieties were transplanted into the field to be treated. […] The test chemicals had been formulated as 50% wettable powders. Overall spray volume was 540 l/ha.

## O=C1C2=C(CCCC2)C(=O)N1c1ccc(Cl)cc1F [Treatment I, 2-(4-chloro-2-fluorophenyl)-4,5,6,7-tetrahydro-2H-isoindole-1,3-dione]
Foxtails (Setaria spp.); 0.5 kg/ha
  % Control, Foxtails: 70%
Foxtails (Setaria spp.); 1.0 kg/ha
  % Control, Foxtails: 90%
Foxtails (Setaria spp.); 2.0 kg/ha
  % Control, Foxtails: 94%
Foxtails (Setaria spp.); 4.0 kg/ha
  % Control, Foxtails: > 99%
[1]; 0.5 kg/ha
  % Control, Barnyardgrass: 65%
[1]; 1.0 kg/ha
  % Control, Barnyardgrass: 90%
[1]; 2.0 kg/ha
  % Control, Barnyardgrass: 94%
[1]; 4.0 kg/ha
  % Control, Barnyardgrass: > 99%
[2]; 0.5 kg/ha
  % Control, Ragweed: 98%
[2]; 1.0 kg/ha
  % Control, Ragweed: > 99%
[2]; 2.0 kg/ha
  % Control, Ragweed: 100%
[2]; 4.0 kg/ha
  % Control, Ragweed: 100%
[3]; 0.5 kg/ha
  % Control, Velvetleaf: 100%
[3]; 1.0 kg/ha
  % Control, Velvetleaf: 100%
[3]; 2.0 kg/ha
  % Control, Velvetleaf: 100%
[3]; 4.0 kg/ha
  % Control, Velvetleaf: 100%
[4]; 0.5 kg/ha
  % Control, Smartweed: > 99%
[4]; 1.0 kg/ha
  % Control, Smartweed: 100%
[4]; 2.0 kg/ha
  % Control, Smartweed: 100%
[4]; 4.0 kg/ha
  % Control, Smartweed: 100%
[5]; 0.5 kg/ha
  % Control, Lambsquarters: 100%
[5]; 1.0 kg/ha
  % Control, Lambsquarters: 100%
[5]; 2.0 kg/ha
  % Control, Lambsquarters: 100%
[5]; 4.0 kg/ha
  % Control, Lambsquarters: 100%
[6]; 0.125 kg/ha
  % Control, Barnyardgrass: 90%
[6]; 0.25 kg/ha
  % Control, Barnyardgrass: 99%
[7]; 0.125 kg/ha
  % Control, Pigweed: 99%
[7]; 0.25 kg/ha
  % Control, Pigweed: 100%
[8]; 0.125 kg/ha
  % Control, Ragweed: 100%
[8]; 0.25 kg/ha
  % Control, Ragweed: 100%
[9]; 0.125 kg/ha
  % Control, Velvetleaf: 100%
[9]; 0.25 kg/ha
  % Control, Velvetleaf: 100%
[10]; 0.125 kg/ha
  % Control, Purslane: 100%
[10]; 0.25 kg/ha
  % Control, Purslane: 100%
[11]; 0.125 kg/ha
  % Control, Flower-of-an-Hour: 100%
[11]; 0.25 kg/ha
  % Control, Flower-of-an-Hour: 100%
rice, variety Nato; 0.125 kg/ha
  Crop Response, Rice Nato, 1 cm: 3
  Crop Response, Rice Nato, 2 cm: 1
  Crop Response, Rice Nato, T: 0
rice, variety Nato; 0.25 kg/ha
  Crop Response, Rice Nato, 1 cm: 6
  Crop Response, Rice Nato, 2 cm: 2
  Crop Response, Rice Nato, T: 0

## O=C1C2=C(CCCC2)C(=O)N1c1ccc(Cl)cc1 [Treatment II, 2-(4-chlorophenyl)-4,5,6,7-tetrahydro-2H-isoindole-1,3-dione]
Foxtails (Setaria spp.); 0.5 kg/ha
  % Control, Foxtails: 0%
Foxtails (Setaria spp.); 1.0 kg/ha
  % Control, Foxtails: 20%
Foxtails (Setaria spp.); 2.0 kg/ha
  % Control, Foxtails: 40%
Foxtails (Setaria spp.); 4.0 kg/ha
  % Control, Foxtails: 40%
[1]; 0.5 kg/ha
  % Control, Barnyardgrass: 0%
[1]; 1.0 kg/ha
  % Control, Barnyardgrass: 20%
[1]; 2.0 kg/ha
  % Control, Barnyardgrass: 40%
[1]; 4.0 kg/ha
  % Control, Barnyardgrass: 50%
[2]; 0.5 kg/ha
  % Control, Ragweed: 50%
[2]; 1.0 kg/ha
  % Control, Ragweed: 70%
[2]; 2.0 kg/ha
  % Control, Ragweed: 90%
[2]; 4.0 kg/ha
  % Control, Ragweed: > 99%
[3]; 0.5 kg/ha
  % Control, Velvetleaf: 70%
[3]; 1.0 kg/ha
  % Control, Velvetleaf: 80%
[3]; 2.0 kg/ha
  % Control, Velvetleaf: 100%
[3]; 4.0 kg/ha
  % Control, Velvetleaf: 100%
[4]; 0.5 kg/ha
  % Control, Smartweed: 70%
[4]; 1.0 kg/ha
  % Control, Smartweed: 80%
[4]; 2.0 kg/ha
  % Control, Smartweed: 80%
[4]; 4.0 kg/ha
  % Control, Smartweed: 99%
[5]; 0.5 kg/ha
  % Control, Lambsquarters: 70%
[5]; 1.0 kg/ha
  % Control, Lambsquarters: 80%
[5]; 2.0 kg/ha
  % Control, Lambsquarters: 99%
[5]; 4.0 kg/ha
  % Control, Lambsquarters: 99%
[6]; 0.25 kg/ha
  % Control, Barnyardgrass: 58%
[6]; 0.50 kg/ha
  % Control, Barnyardgrass: 97%
[6]; 1.0 kg/ha
  % Control, Barnyardgrass: 99%
[6]; 2.0 kg/ha
  % Control, Barnyardgrass: 100%
[7]; 0.25 kg/ha
  % Control, Pigweed: 100%
[7]; 0.50 kg/ha
  % Control, Pigweed: 100%
[7]; 1.0 kg/ha
  % Control, Pigweed: 100%
[7]; 2.0 kg/ha
  % Control, Pigweed: 100%
[8]; 0.25 kg/ha
  % Control, Ragweed: 100%
[8]; 0.50 kg/ha
  % Control, Ragweed: 100%
[8]; 1.0 kg/ha
  % Control, Ragweed: 100%
[8]; 2.0 kg/ha
  % Control, Ragweed: 100%
[9]; 0.25 kg/ha
  % Control, Velvetleaf: 100%
[9]; 0.50 kg/ha
  % Control, Velvetleaf: 100%
[9]; 1.0 kg/ha
  % Control, Velvetleaf: 100%
[9]; 2.0 kg/ha
  % Control, Velvetleaf: 100%
[10]; 0.25 kg/ha
  % Control, Purslane: 100%
[10]; 0.50 kg/ha
  % Control, Purslane: 100%
[10]; 1.0 kg/ha
  % Control, Purslane: 100%
[10]; 2.0 kg/ha
  % Control, Purslane: 100%
[11]; 0.25 kg/ha
  % Control, Flower-of-an-Hour: 98%
[11]; 0.50 kg/ha
  % Control, Flower-of-an-Hour: 100%
[11]; 1.0 kg/ha
  % Control, Flower-of-an-Hour: 100%
[11]; 2.0 kg/ha
  % Control, Flower-of-an-Hour: 100%
rice, variety Nato; 0.25 kg/ha
  Crop Response, Rice Nato, 1 cm: 5
  Crop Response, Rice Nato, 2 cm: 0
  Crop Response, Rice Nato, T: 1
rice, variety Nato; 0.50 kg/ha
  Crop Response, Rice Nato, 1 cm: 8
  Crop Response, Rice Nato, 2 cm: 1
  Crop Response, Rice Nato, T: 1
rice, variety Nato; 1.0 kg/ha
  Crop Response, Rice Nato, 1 cm: 9
  Crop Response, Rice Nato, 2 cm: 4
  Crop Response, Rice Nato, T: 1
rice, variety Nato; 2.0 kg/ha
  Crop Response, Rice Nato, 1 cm: 9
  Crop Response, Rice Nato, 2 cm: 6
  Crop Response, Rice Nato, T: 2
